Data taken from patent US8314150B2, “Kinase protein binding inhibitors” (priority 2008, dated 2012).

Test system: Panc-1 and Miapaca-2 pancreatic cancer cells
Test: MTT cell viability assay, pancreatic cancer cells
Assay type: cell-based, human
Conditions: 72 hours
Procedure: The 3-(4,5-dimethylthiazol-2-yl)-5-(3-carboxymethoxyphenyl)-2-(4-sulfophenyl)-2H-tetrazolium compound from Promega Viability kit (Madison, Ill.) was added, and the cells were incubated at 37° C. for 1-2 hours. The optical density on 96-plate was analyzed with a microplate reader at 490 nm to determine cell viability. In addition, cells were stained with trypan blue after 24 hours of treatment with Y15 and the percent of cells that stained positive were determined with a hemacytometer. Cell adhesion assay—The poly-L-Lysine or Collagen (5 μg/ml) coated 96-well plates were blocked with the blocking buffer (medium with 0.5% BSA) for 1 hour at 37 C. […] Then 2% SDS was added to the dried plated and OD at 590 nm was measured for detecting cell adhesion. […] Protein concentrations were determined using a Bio-Rad Kit. The boiled samples were loaded on Ready SDS-10% PAGE gels (Bio Rad, Inc) and used for Western blot analysis with the protein-specific antibody. […] Detachment Assay—Cells were plated with and without inhibitors for 24 hours, and detached and attached cells were counted in a hemocytometer. We calculated the percent of detachment by dividing the number of detached cells by the total number of cells. The percent of detached cells was calculated in three independent experiments. […] For each experiment 300 cells per treatment were counted. […]

In the case of `Cl.Cl.Cl.Cl.Nc1cc(N)c(N)cc1N` [Y15, 1,2,4,5-benzenetetraamine tetrahydrochloride], the “dose from which cell viability was inhibited” value is reported as 1 µM.
